Source: ChEMBL document CHEMBL4732125, “Structures/cytotoxicity/selectivity relationship of natural steroidal saponins against GSCs and primary mechanism of tribulosaponin A” (Eur J Med Chem, 2021)
Active and inactive are the calls of the source. The rule behind the calls is not given here.

How the values were obtained:
HEK-293T [1] = assay: Cytotoxicity against human 293T cells assessed as reduction in cell viability after 72 hrs by MTS assay; format: cell-based; conditions: Homo sapiens, HEK-293T
HEK-293T [2] = assay: Cytotoxicity against human 293T cells assessed as inhibition of cell growth at 20 uM after 5 days; format: cell-based; conditions: 120 h, time 5 day
[3] = Cytotoxicity against human GSC18 cells assessed as reduction in cell viability after 72 hrs by MTS assay; format: functional, cell-based, GSC-18; conditions: GSC18, 72 h
T98G [4] = assay: Cytotoxicity against human T98G cells assessed as inhibition of cell growth at 20 uM after 5 days; format: cell-based; conditions: 120 h, time 5 day
U-87 MG [5] = assay: Cytotoxicity against human U-87 MG cells assessed as inhibition of cell growth at 20 uM after 5 days; format: cell-based; conditions: u-87mg atcc, 120 h, time 5 day
HUVEC [6] = assay: Cytotoxicity against HUVEC assessed as inhibition of cell growth at 20 uM after 5 days; format: cell-based; conditions: human, 120 h, time 5 day
U-87 MG [7] = assay: Cytotoxicity against human U-87 MG cells assessed as reduction in cell viability after 72 hrs by MTS assay; format: cell-based, U-87MG ATCC; conditions: Homo sapiens, U-87 MG
GSC-3 = assay: Cytotoxicity against human GSC3 cells assessed as inhibition of cell growth at 20 uM after 5 days; format: functional, cell-based; conditions: time 5.0 day
GSC-18 = assay: Cytotoxicity against human GSC18 cells assessed as inhibition of cell growth at 20 uM after 5 days; format: functional, cell-based; conditions: time 5.0 day
[8] = Cytotoxicity against human GSC3 cells assessed as reduction in cell viability after 72 hrs by MTS assay; format: functional, cell-based; conditions: GSC-3, 72 h
HUVEC [9] = assay: Cytotoxicity against HUVEC assessed as reduction in cell viability after 72 hrs by MTS assay; format: cell-based, Homo sapiens; conditions: Homo sapiens, HUVEC
T98G [10] = assay: Cytotoxicity against human T98G assessed as reduction in cell viability after 72 hrs by MTS assay; format: cell-based; conditions: Homo sapiens, T98G

Structure (SMILES): CC(=O)O[C@H]1C(=O)[C@@]2(C)[C@H]([C@H](OC(=O)c3ccccc3)[C@]3(O)C[C@H](OC(=O)[C@H](O)[C@@H](NC(=O)c4ccccc4)c4ccccc4)C(C)=C1C3(C)C)[C@]1(OC(C)=O)CO[C@@H]1C[C@@H]2O [PACLITAXEL]
- IC50 (HEK-293T [1]): 10 nM
- Activity (HEK-293T [2]): Toxic
- IC50 [3]: 9600 nM
- Activity (T98G [4]): Toxic
- Activity (U-87 MG [5]): Toxic
- Activity (HUVEC [6]): Toxic
- IC50 (U-87 MG [7]): 8 nM
- Activity (GSC-3): Active
- Activity (GSC-18): Active
- IC50 [8]: 11300 nM
- IC50 (HUVEC [9]): 5 nM
- IC50 (T98G [10]): 12 nM
